Data set [1] concerns Kanzawa spider mite (Tetranychus kanzawai kishida) which are resistant to Compound A. The data set is described as follows: Miticidal effect against female imagines of Kanzawa spider mite resistant to Compound A (leaf disk spray test). Particulars: for LC50 (ppm): single active ingredient, female imago, Compound A-resistant colony, mortality two days after spray treatment, probit method. The procedure: Round leaf disks (2 cm diameter) are cut out of a first leaf of kidney bean by using a leaf punch and 4 sheets of the leaf disks are placed on wet sanitary cotton on a PVC cup of 8 cm diameter.
Each PVC cup is sprayed with 3.5 ml of the test solution by using a rotary spray tower (manufactured by Mizuho Scientific Co., Ltd.) and stored in a constant temperature chamber held at 25±° C. (32 individuals are tested per concentration, 4-5 concentrations are evaluated per formulation and 2 performances are repeated). Two days after treatment, the number of living and dead female imagines of Kanzawa spider mite (Tetranychus kanzawai kishida) on the leaf disk is investigated and the mortality (%) is calculated according to the formula shown hereinbelow. From these mortality data, the LC50 values are obtained by conventional probit method. [formula]
For the above-mentioned values larger than 100, the larger value indicates a stronger synergistic action. For the value equal to 100, an additive action is indicated. For the values less than 100, the lesser value indicates a larger antagonistic action. A more detailed description of the calculation of the co-toxicity coefficient by the above-mentioned Sun and Johnson's method is the following. […] [formula]

The subject of data set [2] is susceptible strain of spider mite. The data set is described as follows: Effect of Compound A against a susceptible strain of spider mite. The settings on record: not mentioned in the table. The class given is in vivo.

As for `Cc1c(COC(=O)[C@@H]2[C@H](/C=C(\Cl)C(F)(F)F)C2(C)C)cccc1-c1ccccc1` (racemic) [Bifenthrin, 2-methylbiphenyl-3-ylmethyl (Z)-(1RS,3RS)-3-(2-chloro-3,3,3-trifluoroprop-1-enyl)-2,2-dimethylcyclopropanecar-boxylate], in data set [1], the “LC50 (ppm)” value was determined as 20 ppm.

As to `CC1(C)C(C=C(Cl)Cl)C1C(=O)OC(C#N)c1ccc(F)c(Oc2ccccc2)c1` (racemic) [Cyfluthrin, (RS)-α-cyano4-fluoro-3-phenoxybenzyl (1RS,3RS; 1RS,3SR)-3-(2,2-dichlorovinyl)-2,2-dimethylcyclopropanecarboxylate], the “LC50 (ppm)” value in data set [1] was found to be 1500 ppm. Regarding `CC1(C)[C@H](C(=O)O[C@@H](C#N)c2cccc(Oc3ccccc3)c2)[C@@H]1/C=C(\Cl)C(F)(F)F` (racemic) [Cyhalothrin, (RS)-α-cyano-3-phenoxybenzyl (Z)-(1RS,3RS)-3-(2-chloro-3,3,3-trifluoropropenyl)-2,2-dimethylcyclopropanecarboxylate], in data set [1], the “LC50 (ppm)” value is recorded as 590 ppm. Regarding `CC1(C)C(C=C(Cl)Cl)C1C(=O)OC(C#N)c1cccc(Oc2ccccc2)c1` (racemic) [Cypermethrin, (RS)-α-cyano-3-phenoxybenzyl (1RS,3RS,1RS,3RS)-3-(2,2-dichlorovinyl)-2,2-dimethylcyclopro-panecarboxylate], the “LC50 (ppm)” value in data set [1] is listed as 2500 ppm.

In the case of `CC1(C)C(C(=O)OC(C#N)c2cccc(Oc3ccccc3)c2)C1(C)C` (racemic) [Fenpropathrin, (RS)-α-cyano-3-phenoxybenzyl 2,2,3,3-tetramethyl-cyclopropanecarboxylate], in data set [1], the “LC50 (ppm)” value worked out at 290 ppm. Turning to `CCOCn1c(-c2ccc(Cl)cc2)c(C#N)c(Br)c1C(F)(F)F` [Compound A, 4-bromo-2-(4-chlorophenyl)-1-(ethoxymethyl)-5-(trifluoromethyl)-pyrrole-3-carbonitrile], in data set [1] (resistant strain versus susceptible strain, LC50 values), the “resistance against Compound A” value is roughly 300 fold. In addition, the “LC50 (ppm)” value in data set [1] is 1500 ppm. In addition, in data set [2], the LC50 value result is “about 5 ppm”.

As to `CCOc1ccc(C(C)(C)COCc2cccc(Oc3ccccc3)c2)cc1` [Ethofenprox, 2-(4-ethoxyphenyl)-2-methylpropyl 3-phenoxybenzyl ether], the “LC50 (ppm)” value in data set [1] was 620 ppm. With `CC(C)[C@H](Nc1ccc(C(F)(F)F)cc1Cl)C(=O)OC(C#N)c1cccc(Oc2ccccc2)c1` (stereo partly drawn) [Fluvalinate, (RS)-α-cyano-3-phenoxy-benzyl N-(2-chloro-α,α,α,α-trifluoro-p-tolyl)-D-valinate], the “LC50 (ppm)” value in data set [1] is 180 ppm.

`CC1(C)C(C=C(Cl)Cl)C1C(=O)OCc1cccc(Oc2ccccc2)c1` (stereo not drawn) [Permethrin, 3-phenoxybenzyl (1RS,3RS; 1RS,3RS)-3-(2,2-dichlorovinyl)-2,2-dimethylcyclopropanecarboxylate]: the “LC50 (ppm)” value in data set [1] was 440 ppm.
